Laboratory results taken from ChEMBL document CHEMBL1157876, “Isomeric tropane alkaloids from the aerial parts of Schizanthus tricolor” (J Nat Prod, 2010).

Tests used:
[1] = Cytotoxicity against human MRC5 SV2 cells after 72 hrs by resazurin dye reduction assay; format: cell-based
Plasmodium falciparum = test: Antimalarial activity against chloroquine and pyrimethamine-resistant Plasmodium falciparum K1 infected in human erythrocytes after 72 hrs by spectrophotometry based Malstat method; format: functional, organism-based; conditions: K1, 72 h

SMILES	CC50 at 72 h [1]	IC50 (Plasmodium falciparum)
C=C(CC(=O)O[C@@H]1C[C@H]2C[C@H](OC(=O)C=C(C)C)[C@H](C1)N2C)C(=O)OC	> 64 µM	22.8 µM
C/C=C(\C)C(=O)O[C@H]1C[C@@H]2C[C@@H](OC(=O)/C=C(\C)C(=O)OC)C[C@@H]1N2C	> 64 µM	36 µM
C/C=C(/C)C(=O)O[C@H]1C[C@@H]2C[C@@H](OC(=O)/C=C(\C)C(=O)OC)C[C@@H]1N2C	> 64 µM	24.8 µM
CCN(CC)Cc1cc(Nc2ccnc3cc(Cl)ccc23)ccc1O		< 0.25 µM
COC(=O)/C(C)=C/C(=O)O[C@@H]1C[C@H]2C[C@H](OC(=O)C=C(C)C)[C@H](C1)N2C		63.5 µM
